Reference: ChEMBL document CHEMBL3885881, “DrugMatrix”

Organism: Rattus norvegicus
Assay: DrugMatrix - Regimen: Daily Repeat
Assay type: toxicity, organism-based, Sprague-Dawley
Design: regimen Daily Repeat, gender Male, age 6-8 weeks
Conditions: in vivo, iv, vehicle 100 % SALINE; for ABSOLUTE BASOPHIL / ABSOLUTE EOSINOPHIL / ABSOLUTE LYMPHOCYTE / ABSOLUTE MONOCYTE / ABSOLUTE SEGMENTED NEUTROPHIL / BASOPHIL / EOSINOPHIL / ERYTHROCYTE COUNT / HEMATOCRIT / HEMOGLOBIN / LEUKOCYTE COUNT / LYMPHOCYTE / MEAN CORPUSCULAR HEMOGLOBIN / MEAN CORPUSCULAR HEMOGLOBIN CONCENTRATION / MEAN CORPUSCULAR VOLUME / MONOCYTE / NEUTROPHIL / NUCLEATED RED BLOOD CELLS / PLATELET COUNT: tissue Blood
[1] = 400 mg/kg, 72 h, dose level Low, time 3 day
[2] = 400 mg/kg, 72 h, tissue Plasma, dose level Low, time 3 day
[3] = 400 mg/kg, 120 h, dose level Low, time 5 day
[4] = 400 mg/kg, 120 h, tissue Plasma, dose level Low, time 5 day
[5] = 1200 mg/kg, 72 h, dose level M1, time 3 day

`NC(CO)(CO)CO` [TROMETHAMINE] was tested, and the “ABSOLUTE BASOPHIL” value [1] was 0 CELLS/uL, the “ABSOLUTE EOSINOPHIL” value [1] was 233.33 CELLS/uL and the “ABSOLUTE LYMPHOCYTE” value [1] was 15317.33 CELLS/uL. The “ABSOLUTE MONOCYTE” value [1] was 347.33 CELLS/uL, the “ABSOLUTE SEGMENTED NEUTROPHIL” value [1] was 1468.67 CELLS/uL and the BASOPHIL [1] was 0%. The EOSINOPHIL [1] was 1.33%, the “ERYTHROCYTE COUNT” value [1] was 5.74 x10E6/uL and the HEMATOCRIT [1] was 36.9%. The HEMOGLOBIN [1] was 13.67 G/DL, the “LEUKOCYTE COUNT” value [1] was 17.37 x10E3/uL and the LYMPHOCYTE [1] was 88.33%. The “MEAN CORPUSCULAR HEMOGLOBIN” value [1] was 23.87 pg, the “MEAN CORPUSCULAR HEMOGLOBIN CONCENTRATION” value [1] was 37.03 G/DL and the “MEAN CORPUSCULAR VOLUME” value [1] was 64.37 fL. For the same compound, the MONOCYTE [1] was 2%, the NEUTROPHIL [1] was 8.33% and the “NUCLEATED RED BLOOD CELLS” value [1] was 0 /100WBC. For the same compound, the “PLATELET COUNT” value [1] was 1402.67 x10E3/uL, the “ALANINE AMINOTRANSFERASE” value [2] was 55.67 u/L and the ALBUMIN [2] was 4.27 G/DL. For the same compound, the “ALKALINE PHOSPHATASE” value [2] was 354.33 u/L, the “ASPARTATE AMINOTRANSFERASE” value [2] was 97 u/L and the “BLOOD UREA NITROGEN” value [2] was 17.67 mg/dL. The “CARBON DIOXIDE” value [2] was 20 mmol/L, the CHLORIDE [2] was 107 MEQ/L and the CHOLESTEROL [2] was 81.67 mg/dL. For the same compound, the “CREATINE PHOSPHOKINASE” value [2] was 249.33 u/L, the CREATININE [2] was 0.23 mg/dL and the GLUCOSE [2] was 184.67 mg/dL. The “LACTATE DEHYDROGENASE” value [2] was 286.33 u/L, the LIPASE [2] was 9.33 u/L and the PHOSPHORUS [2] was 14.23 mg/dL. The POTASSIUM [2] was 7.13 MEQ/L, the SODIUM [2] was 150.03 MEQ/L and the “TOTAL BILIRUBIN” value [2] was 0.23 mg/dL. The “URIC ACID” value [2] was 2.83 mg/dL, the “ABSOLUTE BASOPHIL” value [3] was 0 CELLS/uL and the “ABSOLUTE EOSINOPHIL” value [3] was 193.67 CELLS/uL. For the same compound, the “ABSOLUTE LYMPHOCYTE” value [3] was 13973.67 CELLS/uL, the “ABSOLUTE MONOCYTE” value [3] was 314 CELLS/uL and the “ABSOLUTE SEGMENTED NEUTROPHIL” value [3] was 1218.67 CELLS/uL. The BASOPHIL [3] was 0%, the EOSINOPHIL [3] was 1.33% and the “ERYTHROCYTE COUNT” value [3] was 5.88 x10E6/uL. For the same compound, the HEMATOCRIT [3] was 36.53%, the HEMOGLOBIN [3] was 13.73 G/DL and the “LEUKOCYTE COUNT” value [3] was 15.7 x10E3/uL. The LYMPHOCYTE [3] was 89%, the “MEAN CORPUSCULAR HEMOGLOBIN” value [3] was 23.33 pg and the “MEAN CORPUSCULAR HEMOGLOBIN CONCENTRATION” value [3] was 37.6 G/DL. The “MEAN CORPUSCULAR VOLUME” value [3] was 62.13 fL, the MONOCYTE [3] was 2% and the NEUTROPHIL [3] was 7.67%. For the same compound, the “NUCLEATED RED BLOOD CELLS” value [3] was 0 /100WBC, the “PLATELET COUNT” value [3] was 1369.33 x10E3/uL and the “ALANINE AMINOTRANSFERASE” value [4] was 59 u/L. The ALBUMIN [4] was 4.13 G/DL, the “ALKALINE PHOSPHATASE” value [4] was 352 u/L and the “ASPARTATE AMINOTRANSFERASE” value [4] was 100.33 u/L. The “BLOOD UREA NITROGEN” value [4] was 18 mg/dL, the “CARBON DIOXIDE” value [4] was 26.67 mmol/L and the CHLORIDE [4] was 105 MEQ/L. The CHOLESTEROL [4] was 63.33 mg/dL, the “CREATINE PHOSPHOKINASE” value [4] was 312.67 u/L and the CREATININE [4] was 0.17 mg/dL. For the same compound, the GLUCOSE [4] was 152 mg/dL, the “LACTATE DEHYDROGENASE” value [4] was 490 u/L and the LIPASE [4] was 8 u/L. It also gave a PHOSPHORUS [4] of 13.27 mg/dL, a POTASSIUM [4] of 6.29 MEQ/L and an SODIUM [4] of 147.27 MEQ/L. For the same compound, the “TOTAL BILIRUBIN” value [4] was 0.13 mg/dL, the “TOTAL PROTEIN” value [4] was 6.23 G/DL and the “URIC ACID” value [4] was 1.6 mg/dL. For the same compound, the “ABSOLUTE BASOPHIL” value [5] was 0 CELLS/uL, the “ABSOLUTE EOSINOPHIL” value [5] was 114.67 CELLS/uL and the “ABSOLUTE LYMPHOCYTE” value [5] was 5662 CELLS/uL. For the same compound, the “ABSOLUTE MONOCYTE” value [5] was 0 CELLS/uL, the “ABSOLUTE SEGMENTED NEUTROPHIL” value [5] was 823.33 CELLS/uL and the BASOPHIL [5] was 0%. For the same compound, the EOSINOPHIL [5] was 1.67%, the “ERYTHROCYTE COUNT” value [5] was 4.96 x10E6/uL and the HEMATOCRIT [5] was 32.13%. For the same compound, the HEMOGLOBIN [5] was 12.23 G/DL, the “LEUKOCYTE COUNT” value [5] was 6.6 x10E3/uL and the LYMPHOCYTE [5] was 86%. For the same compound, the “MEAN CORPUSCULAR HEMOGLOBIN” value [5] was 24.7 pg, the “MEAN CORPUSCULAR HEMOGLOBIN CONCENTRATION” value [5] was 38.17 G/DL and the “MEAN CORPUSCULAR VOLUME” value [5] was 64.73 fL. For the same compound, the MONOCYTE [5] was 0%, the NEUTROPHIL [5] was 12.33% and the “NUCLEATED RED BLOOD CELLS” value [5] was 0 /100WBC. For the same compound, the “PLATELET COUNT” value [5] was 1106 x10E3/uL.
